We go through 5 molecules from ChEMBL document CHEMBL1130070, “Zinc ejection as a new rationale for the use of cystamine and related disulfide-containing antiviral agents in the treatment of AIDS” (J Med Chem, 1997).

Assay [1] concerns the target Human immunodeficiency virus type 1 reverse transcriptase (Human immunodeficiency virus 1, UniProt Q72547). Put plainly: Compound was tested for the effect on HIV-1 Reverse Transcriptase; NI = No inhibition.
For assay [2], the system named is Human immunodeficiency virus 1. Put plainly: Compound was tested for binding of HIV-1 to CEM-ss cells; NI = No inhibition. In kind it is functional, organism-based.
For assay [3], the system named is CEM-SS. Put plainly: Antiviral activity against HIV-1 in CEM-SS cells using […] assay; I = No antiviral activity. The format is functional, cell-based, Homo sapiens.
The test system of assay [4] is CEM-SS. The experiment in a line: Antiviral activity against HIV-1ADA in […]; I = No antiviral activity. The format is functional, cell-based, Homo sapiens.
For assay [5], the system named is CEM-SS. Put plainly: Antiviral activity against HIV-1ADA in […]. The format is functional, cell-based. As to conditions: Homo sapiens; call rule not given here.
In assay [6] the test system is CEM-SS. The experiment in a line: Antiviral activity against HIV-1 in CEM-SS cells using […] assay. In kind it is functional, cell-based. As to conditions: Homo sapiens.
The target in assay [7] is Human immunodeficiency virus type 1 protease (Human immunodeficiency virus 1, UniProt Q72874). The experiment in a line: Compound was tested for effects on HIV-1 protease; NI = No inhibition.

SMILES strings stand for the structures.

What is called EC50 is the midpoint of the concentration-response curve. Usually IC50 stands for the concentration that gives 50% inhibition. `C/C(=C(\CCO)SS/C(CCO)=C(/C)N(C=O)Cc1cnc(C)nc1N)N(C=O)Cc1cnc(C)nc1N`: the I50 result in assay [1], in assay [2] and in assay [7] was “Not Active” in each case. For the same molecule, the EC50 entry in the assay on CEM-SS [3] and in the assay on CEM-SS [4] was “Not Active” each time. The IC50 with CEM-SS [5] is over 100 µM; in the assay with CEM-SS [6] it was 535 µM.
For the molecule `NCCSSCCN` [CYSTAMINE], the I50 result in assay [1], in assay [2] and in assay [7] was “Not Active” throughout. For the same molecule, the EC50 with CEM-SS [5] stood at 4.3 µM; in the assay on CEM-SS [6] it was 56.2 µM. Also, the IC50 in the assay on CEM-SS [5] is over 100 µM; in the assay with CEM-SS [6], 172 µM.
On to `NCCS` [CYSTEAMINE], for which the I50 result in assay [1], in assay [2] and in assay [7] was “Not Active” in each case. Further, the EC50 worked out at 53.7 µM in the assay with CEM-SS [5] and 41.6 µM with CEM-SS [6]. The half-maximal inhibitory concentration (IC50) is over 100 µM in the assay with CEM-SS [5] and 71 µM with CEM-SS [6].
With `CCN(CC)C(=S)SSC(=S)N(CC)CC` [DISULFIRAM], the I50 result in assay [1], in assay [2] and in assay [7] was “Not Active” in each case. The EC50 result with CEM-SS [3] and in the assay on CEM-SS [4] was “Not Active” throughout. The 50% inhibitory concentration (IC50) in the assay with CEM-SS [5] is over 100 µM; in the assay with CEM-SS [6] it was 3.9 µM.
As to `CCN(CC)C(=S)S` [DITIOCARB], the I50 result in assay [1], in assay [2] and in assay [7] was “Not Active” each time. Further, the EC50 entry in the assay on CEM-SS [3] and in the assay with CEM-SS [4] was “Not Active” each time. Also, the IC50 in the assay with CEM-SS [5] and in the assay on CEM-SS [6] was over 100 µM each time.
